Data taken from ChEMBL document CHEMBL4619778, “Oligopeptides as Neuropeptide Y Y4 Receptor Ligands: Identification of a High-Affinity Tetrapeptide Agonist and a Hexapeptide Antagonist” (J Med Chem, 2020).
Bridge positions count the residues as written; N and C are the ends. Square brackets hold non-standard residues; d marks the D form. Peptide text beside a SMILES is read from it. I, II: the chains in the order shown. ξ: configuration not given here. ξDap = NCC(N)C(=O)O

Assays:
[1] = biological target: T1, Neuropeptide Y receptor type 4 (Homo sapiens, UniProt P50391); experiment: Displacement of [3H]UR-KK200 from human Y4 receptor expressed in CHO cells co-expressing Gqi5-mtAEQ measured after 90 mins by scintillation counting analysis; assay type: cell-based
[2] = biological target: T2, Neuropeptide Y receptor type 1 (Homo sapiens, UniProt P25929); experiment: Displacement of [3H]UR-MK299 from Y1 receptor in human SK-N-MC cells; assay type: cell-based
T2 sequence (P25929 whole entry): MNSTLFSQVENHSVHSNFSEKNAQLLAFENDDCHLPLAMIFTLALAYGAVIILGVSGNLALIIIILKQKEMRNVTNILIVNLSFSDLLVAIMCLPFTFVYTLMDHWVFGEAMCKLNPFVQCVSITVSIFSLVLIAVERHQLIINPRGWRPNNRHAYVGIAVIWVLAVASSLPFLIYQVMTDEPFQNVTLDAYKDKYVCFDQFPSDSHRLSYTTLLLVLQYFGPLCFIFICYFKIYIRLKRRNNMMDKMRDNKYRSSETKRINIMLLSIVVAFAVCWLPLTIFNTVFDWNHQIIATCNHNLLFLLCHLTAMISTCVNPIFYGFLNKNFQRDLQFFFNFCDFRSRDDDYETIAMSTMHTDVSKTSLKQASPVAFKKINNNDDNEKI

[3] = biological target: T1, Neuropeptide Y receptor type 4; experiment: Agonist activity at human Y4 receptor expressed in CHO cells co-expressing Gqi5-mtAEQ assessed as intracellular calcium mobilization measured for 43 secs in presence of coelenterazine by aequorin-reporter gene based luminescence assay; assay type: functional, cell-based
[4] = biological target: T3, Neuropeptide Y receptor type 5 (Homo sapiens, UniProt Q15761); experiment: Displacement of [3H]propionyl-pNPY from human Y5 receptor expressed in human HEC1B cells; assay type: cell-based
T3 sequence (Q15761 whole entry): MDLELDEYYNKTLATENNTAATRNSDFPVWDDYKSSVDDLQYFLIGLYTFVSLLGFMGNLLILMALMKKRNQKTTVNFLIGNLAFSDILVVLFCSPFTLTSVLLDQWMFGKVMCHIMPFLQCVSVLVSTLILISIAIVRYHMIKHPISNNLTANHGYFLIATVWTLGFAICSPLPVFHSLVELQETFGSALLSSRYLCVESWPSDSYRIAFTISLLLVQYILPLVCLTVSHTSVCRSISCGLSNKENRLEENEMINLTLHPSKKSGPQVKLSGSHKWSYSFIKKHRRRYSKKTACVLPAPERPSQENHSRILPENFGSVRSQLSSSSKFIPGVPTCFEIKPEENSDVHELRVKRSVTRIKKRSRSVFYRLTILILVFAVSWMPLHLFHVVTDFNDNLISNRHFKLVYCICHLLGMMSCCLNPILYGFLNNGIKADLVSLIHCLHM

Homo sapiens [5] = species on record: Homo sapiens; experiment: Selectivity ratio of Ki for displacement of [3H]propionyl-pNPY from human Y5 receptor expressed in human HEC1B cells to Ki for displacement of [3H]UR-KK200 from human Y4 receptor expressed in CHO cells co-expressing Gqi5-mtAEQ; assay type: cell-based
[6] = biological target: T1, Neuropeptide Y receptor type 4; experiment: Agonist activity at human Y4R expressed in HEK293T cells co-expressing ARRB2 assessed as induction of beta-arrestin2 recruitment measured for 40 mins by D-luciferin based luminescence assay; assay type: cell-based, HEK-293T
Homo sapiens [7] = species on record: Homo sapiens; experiment: Selectivity ratio of Ki for displacement of [3H]UR-MK299 from Y1 receptor in human SK-N-MC cells to Ki for displacement of [3H]UR-KK200 from human Y4 receptor expressed in CHO cells co-expressing Gqi5-mtAEQ; assay type: cell-based
[8] = biological target: T1, Neuropeptide Y receptor type 4; experiment: Agonist activity at human Y4R expressed in HEK293T cells co-expressing ARRB1 assessed as induction of beta-arrestin1 recruitment measured for 40 mins by D-luciferin based luminescence assay; assay type: cell-based, HEK-293T
[9] = biological target: T4, Neuropeptide Y receptor type 2 (Homo sapiens, UniProt P49146); experiment: Displacement of [3H]propionyl-pNPY from human Y2 receptor expressed in CHO cells measured after 2 hrs by microbeta liquid scintillation counting analysis; assay type: cell-based
T4 sequence (P49146 whole entry): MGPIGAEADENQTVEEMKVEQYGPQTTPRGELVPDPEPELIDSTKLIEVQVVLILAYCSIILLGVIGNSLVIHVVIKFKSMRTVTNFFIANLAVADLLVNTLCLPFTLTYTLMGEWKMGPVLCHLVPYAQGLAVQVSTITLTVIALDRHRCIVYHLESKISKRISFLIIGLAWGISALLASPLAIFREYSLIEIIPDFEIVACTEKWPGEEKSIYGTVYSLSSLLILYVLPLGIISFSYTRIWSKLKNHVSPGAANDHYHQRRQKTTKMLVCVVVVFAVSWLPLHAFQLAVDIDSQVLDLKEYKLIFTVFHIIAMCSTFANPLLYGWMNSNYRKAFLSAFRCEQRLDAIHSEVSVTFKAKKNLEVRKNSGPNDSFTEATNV

Homo sapiens [10] = species on record: Homo sapiens; experiment: Selectivity ratio of Ki for displacement of [3H]propionyl-pNPY from human Y2 receptor expressed in CHO cells to Ki for displacement of [3H]UR-KK200 from human Y4 receptor expressed in CHO cells co-expressing Gqi5-mtAEQ; assay type: cell-based

T1 sequence (P50391 whole entry): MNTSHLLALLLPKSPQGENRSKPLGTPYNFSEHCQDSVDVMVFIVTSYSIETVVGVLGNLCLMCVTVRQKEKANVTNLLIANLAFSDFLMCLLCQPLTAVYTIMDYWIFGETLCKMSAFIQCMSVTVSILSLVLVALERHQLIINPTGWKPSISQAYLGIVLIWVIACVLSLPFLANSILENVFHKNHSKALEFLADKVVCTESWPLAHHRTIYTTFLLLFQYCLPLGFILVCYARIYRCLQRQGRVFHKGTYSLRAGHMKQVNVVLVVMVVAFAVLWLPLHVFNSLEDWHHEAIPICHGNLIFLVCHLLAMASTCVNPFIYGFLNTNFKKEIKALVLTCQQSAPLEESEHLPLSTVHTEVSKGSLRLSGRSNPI

Row | Compound | Ki ([1]; read-out: Ki) [nM] | Ki ([1]; read-out: pKi (converted)) [nM] | Ki ([2]; read-out: Ki) [µM] | EC50 ([3]; read-out: EC50) [µM] | EC50 ([3]; read-out: pEC50 (converted)) [µM] | Ki ([4]; read-out: Ki) [µM] | Ratio Ki (Homo sapiens [5]) | EC50 ([6]; read-out: EC50) [µM] | EC50 ([6]; read-out: pEC50 (converted)) [µM] | Ratio Ki (Homo sapiens [7]) | EC50 ([8]; read-out: EC50) [µM] | EC50 ([8]; read-out: pEC50 (converted)) [µM] | Ki ([9]; read-out: Ki) [µM] | Ratio Ki (Homo sapiens [10]) | Ki ([2]; read-out: pKi (converted)) [µM] | Ki ([4]; read-out: pKi (converted)) [µM] | Ki ([9]; cho, read-out: Ki) [µM] | Ki ([9]; read-out: pKi (converted)) [µM]
1 | CC(=O)N[C@@H](CCCNC(=N)N)C(=O)N[C@@H](Cc1ccc(O)cc1)C(=O)N[C@@H](CCCNC(=N)N)C(=O)N[C@@H](CC(C)C)C(=O)N[C@@H](CCCNC(=N)N)C(=O)N[C@@H](Cc1ccc(O)cc1)C(N)=O | 3.4 to 3.6 | 3.72 | > 3 | 0.19 | 0.182 | > 3 | > 830 | 0.12 | 0.112 | > 830 | 0.17 | 0.162 | > 3 | > 830 | – | – | – | –
2 | CC(C)C[C@@H](NC(=O)[C@@H](N)CCCNC(=N)N)C(=O)N[C@@H](CCCNC(=N)N)C(=O)N[C@@H](Cc1ccc(O)cc1)C(N)=O | 93 | – | – | – | – | – | – | > 30 | > 31.6 | – | > 30 | > 31.6 | – | – | – | – | – | –
3 | CC(=O)N[C@@H](CCCNC(=N)N)C(=O)N[C@@H](Cc1ccc(O)cc1)C(=O)N[C@@H](CCCNC(N)=O)C(=O)N[C@@H](CC(C)C)C(=O)N[C@@H](CCCNC(=N)N)C(=O)N[C@@H](Cc1ccc(O)cc1)C(N)=O | 120 | – | – | > 30 | > 31.6 | – | – | > 30 | > 31.6 | – | > 30 | > 31.6 | – | – | – | – | – | –
4 | CC(C)C[C@H](NC(=O)[C@H](CCCNC(=N)N)NC(=O)[C@H](Cc1ccc(O)cc1)NC(=O)[C@@H](N)CCCNC(=N)N)C(=O)N[C@@H](CCCNC(N)=O)C(=O)N[C@@H](Cc1ccc(O)cc1)C(N)=O | 63 | 56.2 | > 3 | – | – | – | – | 0.93 | – | > 48 | 1.07 | – | – | – | > 3.16 | – | – | –
5 | CN[C@@H](CCCNC(=N)N)C(=O)N[C@@H](CC(C)C)C(=O)N[C@@H](CCCNC(=N)N)C(=O)N[C@@H](Cc1ccc(O)cc1)C(N)=O | 3.9 | – | > 3 | – | – | > 10 | > 2600 | 1.2 | – | > 770 | 2.5 | – | – | > 260 | > 3.16 | > 10 | > 1 | > 1
6 | CC(C)C[C@H](NC(=O)[C@@H](N)CCCNC(=N)N)C(=O)N[C@@H](CCCNC(=N)N)C(=O)N[C@H](Cc1ccc(O)cc1)C(N)=O | 1500 | – | – | – | – | – | – | > 30 | > 31.6 | – | > 30 | > 31.6 | – | – | – | – | – | –
7 | CC(C)C[C@H](NC(=O)[C@@H](N)CCCNC(=N)N)C(=O)N[C@H](CCCNC(=N)N)C(=O)N[C@@H](Cc1ccc(O)cc1)C(N)=O | 1300 | – | – | – | – | – | – | > 30 | > 31.6 | – | > 30 | > 31.6 | – | – | – | – | – | –
8 | CC(C)C[C@H](NC(=O)[C@H](CCCNC(=N)N)NC(=O)[C@H](Cc1ccc(O)cc1)NC(=O)[C@@H](N)CCCNC(N)=O)C(=O)N[C@@H](CCCNC(=N)N)C(=O)N[C@@H](Cc1ccc(O)cc1)C(N)=O | 4.8 | 4.47 | > 3 | – | – | > 10 | > 2100 | 0.15 | – | > 630 | 0.1 | – | > 3 | > 630 | > 3.16 | > 10 | – | > 3.16
9 | CC(C)C[C@H](NC(=O)[C@H](N)CCCNC(=N)N)C(=O)N[C@@H](CCCNC(=N)N)C(=O)N[C@@H](Cc1ccc(O)cc1)C(N)=O | 7.4 | – | – | – | – | – | – | 4.8 | 4.68 | – | 2.4 | – | – | – | – | – | – | –
10 | CC(C)C[C@H](NC(=O)[C@H](CCCNC(=N)N)NC(=O)[C@H](Cc1ccc(O)cc1)NC(=O)[C@@H](N)CCCNC(=N)N)C(=O)N[C@@H](CCCNC(=N)N)C(=O)N[C@@H](Cc1ccc(O)cc1)C(N)=O | 2 | – | > 3 | 0.1 | – | > 3 | > 1500 | 0.038 | – | > 1500 | 0.051 | – | – | > 5000 | > 3.16 | > 3.16 | > 10 | > 10
11 | N=C(N)NCCC[C@H](NC(=O)[C@H](Cc1c[nH]c2ccccc12)NC(=O)[C@@H](N)CCCNC(=N)N)C(=O)N[C@@H](Cc1ccc(O)cc1)C(N)=O (H-RWRY-NH2) | 350 | – | – | > 30 | > 31.6 | – | – | > 30 | > 31.6 | – | > 30 | > 31.6 | – | – | – | – | – | –
12 | CC[C@H](C)[C@H](N)C(=O)N[C@H]1CCC(=O)NCC(C(=O)N[C@@H](Cc2ccc(O)cc2)C(=O)N[C@@H](CCCNC(=N)N)C(=O)N[C@@H](CC(C)C)C(=O)N[C@@H](CCCNC(=N)N)C(=O)N[C@@H](Cc2ccc(O)cc2)C(N)=O)NC(=O)[C@@H]2CCCN2C(=O)[C@@H](NC(=O)[C@@H](N)[C@@H](C)CC)CCC(=O)NCC(C(=O)N[C@@H](Cc2ccc(O)cc2)C(=O)N[C@@H](CCCNC(=N)N)C(=O)N[C@@H](CC(C)C)C(=O)N[C@@H](CCCNC(=N)N)C(=O)N[C@@H](Cc2ccc(O)cc2)C(N)=O)NC(=O)[C@@H]2CCCN2C1=O (stereo not given in full) (I: H-IEP[ξDap]YRLRY-NH2 / II: H-IEP[ξDap]YRLRY-NH2; amide I:2-II:4, I:4-II:2) | 0.36 | – | – | – | – | – | – | – | – | – | – | – | – | – | – | – | – | –
13 | Ac-RYRPRY-NH2 | 1800 | – | – | > 30 | > 31.6 | – | – | > 30 | > 31.6 | – | > 30 | > 31.6 | – | – | – | – | – | –
14 | H-RYRARY-NH2 | 240 | 229 | – | > 30 | > 31.6 | – | – | > 30 | > 31.6 | – | > 30 | > 31.6 | – | – | – | – | – | –
15 | H-RYRGRY-NH2 | 190 | – | – | > 30 | > 31.6 | – | – | > 30 | > 31.6 | – | > 30 | > 31.6 | – | – | – | – | – | –
